Where two headings read alike, the source gives them in different places.
Experiments:
cat liver microsomes = format: in vitro ADME; settings: for formation to metabolism ratio: feline liver microsomes, formation rate from (±)-tramadol (Perez Jimenez, 2016) / rate of (+)-M5 formation from the (+)-metabolite
dog liver microsomes = format: in vitro ADME; settings: for Km / Vmax: formation of (+)-M5 from substrate; for formation to metabolism ratio: DLMs, formation rate from (±)-tramadol (Perez Jimenez, 2016) / rate of (+)-M5 formation from the (+)-metabolite
CYP2D15 [1] = biological target: T1, CYP2D15 (Canis lupus familiaris, UniProt Q29473); format: in vitro ADME, canine; settings: recombinant CYP2D15; (+)-M1 10 μM, (+)-M2 0.5 μM
T1 sequence (Q29473 1-500): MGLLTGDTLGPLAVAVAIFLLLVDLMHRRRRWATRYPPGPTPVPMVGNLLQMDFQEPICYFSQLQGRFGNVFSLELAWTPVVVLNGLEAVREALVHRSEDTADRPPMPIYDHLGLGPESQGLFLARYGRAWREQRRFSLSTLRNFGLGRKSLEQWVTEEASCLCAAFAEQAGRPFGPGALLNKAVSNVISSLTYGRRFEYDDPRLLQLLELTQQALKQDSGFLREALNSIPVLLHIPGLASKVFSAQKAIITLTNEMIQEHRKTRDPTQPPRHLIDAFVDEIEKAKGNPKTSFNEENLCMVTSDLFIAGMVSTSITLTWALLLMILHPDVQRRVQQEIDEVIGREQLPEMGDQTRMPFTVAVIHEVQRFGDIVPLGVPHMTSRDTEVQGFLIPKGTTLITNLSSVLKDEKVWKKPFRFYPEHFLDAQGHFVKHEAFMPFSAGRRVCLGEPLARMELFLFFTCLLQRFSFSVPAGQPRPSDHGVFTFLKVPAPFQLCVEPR

CYP2D15 [2] = biological target: T1, CYP2D15; test: in vitro; settings: dog, recombinant enzyme
[3] = test system: (+)-M5 formation from (+)-M1 in pooled DLMs; test: in vitro; settings: dog
[4] = test system: (+)-M5 formation from (+)-M2 in pooled DLMs; test: in vitro; settings: dog
CYP2C21 = biological target: T2, CYP2C21 (Canis lupus familiaris, UniProt P56594); test: in vitro; settings: dog, recombinant enzyme
T2 sequence (P56594 1-487): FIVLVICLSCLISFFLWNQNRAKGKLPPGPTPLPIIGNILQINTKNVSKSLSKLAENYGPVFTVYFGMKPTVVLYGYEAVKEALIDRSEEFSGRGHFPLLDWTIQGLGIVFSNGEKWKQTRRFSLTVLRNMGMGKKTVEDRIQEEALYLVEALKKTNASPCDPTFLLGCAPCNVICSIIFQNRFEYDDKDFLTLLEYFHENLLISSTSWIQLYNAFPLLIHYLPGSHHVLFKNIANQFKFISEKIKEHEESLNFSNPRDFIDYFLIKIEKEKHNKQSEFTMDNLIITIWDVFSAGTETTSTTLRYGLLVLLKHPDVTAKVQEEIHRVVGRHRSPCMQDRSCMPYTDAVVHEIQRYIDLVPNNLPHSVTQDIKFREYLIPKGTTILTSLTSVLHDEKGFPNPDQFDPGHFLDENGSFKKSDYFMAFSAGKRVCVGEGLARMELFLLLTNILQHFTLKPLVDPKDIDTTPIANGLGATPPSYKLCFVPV

[5] = rats, after tramadol administration; ref Sheikholeslami, 2016; cited from earlier work
human liver microsomes = format: in vitro ADME; settings: human liver microsomes; formation rate from (±)-tramadol (Perez Jimenez, 2016) / rate of (+)-M5 formation from the (+)-metabolite
CYP2D15 [6] = settings: CYP2D15 mediated dextromethorphan o-demethylation in DLMs; ref Aidasani, 2008; cited from earlier work
[7] = dog urine; ref Lintz, 1981; cited from earlier work
[8] = dogs, after tramadol administration; ref Kukanich, 2011; Giorgi, 2009; cited from earlier work
μ-opioid = settings: in vitro testing; ref Gillen, 2000; cited from earlier work

SMILES: CNCC1CCCCC1(O)c1cccc(OC)c1 (single isomer, unassigned; (+)) [(+)-M2, (+)-N-desmethyltramadol]
- (+)-M5 formation rate (in words) (cat liver microsomes; pooled cat liver microsomes (n = 16), (+)-M1 at 10 μM, (+)-M2 at 0.5 μM): intermediate between human and DLMs
- Km (dog liver microsomes; Dog 10 liver microsomes): 0.46 µM
- Vmax (dog liver microsomes; Dog 10 liver microsomes): 27 pmol/min/mg protein
- Km (dog liver microsomes; Dog 31 liver microsomes): 0.39 µM
- Vmax (dog liver microsomes; Dog 31 liver microsomes): 23 pmol/min/mg protein
- Km (dog liver microsomes; Dog 46 liver microsomes): 0.38 µM
- Vmax (dog liver microsomes; Dog 46 liver microsomes): 39 pmol/min/mg protein
- Km (dog liver microsomes; pDLM (liver microsomes pooled from 59 dogs)): 0.56 µM
- Vmax (dog liver microsomes; pDLM (pooled from 59 dogs)): 50 pmol/min/mg protein
- (+)-M5 formation rate (in words) (dog liver microsomes; pooled dog liver microsomes (n = 59), (+)-M1 at 10 μM, (+)-M2 at 0.5 μM): highest activities
- formation rate of (+)-M5 (in words) (CYP2D15 [1]): only detected for CYP2D15

SMILES: Nc1ccc(S(=O)(=O)Nc2ccnn2-c2ccccc2)cc1 [sulfaphenazole]
- inhibition at 5 min, 100 μM (CYP2D15 [2]): < 50%
- inhibition at 20 min, 100 μM [3]: > 50%
- inhibition at 5 min, 100 μM [4]: < 50%
- inhibition at 20 min, 100 μM (CYP2C21): > 50%

SMILES: CNCC1CCCCC1(O)c1cccc(OC)c1 (centres unmarked) [M2, N-desmethyltramadol]
- formation to metabolism ratio (cat liver microsomes): 1.7
- formation to metabolism ratio (dog liver microsomes): 3.1
- CSF to plasma concentration ratio [5]: 0.4
- formation to metabolism ratio (human liver microsomes): 2.9

SMILES: CC(=O)N1CCN(c2ccc(OCC3COC(Cn4ccnc4)(c4ccc(Cl)cc4Cl)O3)cc2)CC1 (centres unmarked) [ketoconazole]
- IC50 (CYP2D15 [6]): 470 nM

SMILES: C=C[C@H]1C[N@@]2CC[C@H]1C[C@@H]2[C@@H](O)c1ccnc2ccc(OC)cc12 [quinidine]
- inhibition at 5 min, 10 μM (CYP2D15 [2]): > 70%
- inhibition at 5 min, 10 μM [4]: > 70%

SMILES: CNCC1CCCCC1(O)c1cccc(O)c1 (centres unmarked) [M5, N,O-didesmethyltramadol]
- M5 and M5 conjugates as a percentage of total metabolites in urine [7]: 43%
- plasma concentration higher than M1 concentrations [8]: about 20 fold
- weaker μ-opioid agonist efficacy and potency compared with M1 (μ-opioid): about 30 times
- CSF to plasma concentration ratio [5]: less than 0.1
- CSF to plasma ratio less than M1 [5]: 3 fold

SMILES: CN(C)C[C@H]1CCCC[C@]1(O)c1cccc(O)c1 [M1, O-desmethyltramadol]
- formation to metabolism ratio (cat liver microsomes): 1926
- formation to metabolism ratio (dog liver microsomes): 42
- CSF to plasma concentration ratio [5]: 0.3
- formation to metabolism ratio (human liver microsomes): 71

SMILES: COc1cccc(C2(O)CCCCC2CN(C)C)c1 (centres unmarked) [tramadol, reference compound]
- CSF to plasma concentration ratio [5]: 0.44

From PMC6214715 (Journal of veterinary pharmacology and therapeutics, 2018)
